Measured values reported in paper PMC11141866, “Pyrimidine depletion enhances targeted and immune therapy combinations in acute myeloid leukemia” (JCI Insight, 2024).
Values joined by “and” are separate entries in the source; they are usually repeats but may differ in a detail not shown here. Identical values can stand only once. Like-named read-outs stand apart in the source and are kept apart here.

Key:
[1] = target: CYP 3A4 (Homo sapiens, UniProt P08684); assay: CYP inhibition 3A4; assay type: in vitro ADME
Chain of CYP 3A4 (P08684 whole entry): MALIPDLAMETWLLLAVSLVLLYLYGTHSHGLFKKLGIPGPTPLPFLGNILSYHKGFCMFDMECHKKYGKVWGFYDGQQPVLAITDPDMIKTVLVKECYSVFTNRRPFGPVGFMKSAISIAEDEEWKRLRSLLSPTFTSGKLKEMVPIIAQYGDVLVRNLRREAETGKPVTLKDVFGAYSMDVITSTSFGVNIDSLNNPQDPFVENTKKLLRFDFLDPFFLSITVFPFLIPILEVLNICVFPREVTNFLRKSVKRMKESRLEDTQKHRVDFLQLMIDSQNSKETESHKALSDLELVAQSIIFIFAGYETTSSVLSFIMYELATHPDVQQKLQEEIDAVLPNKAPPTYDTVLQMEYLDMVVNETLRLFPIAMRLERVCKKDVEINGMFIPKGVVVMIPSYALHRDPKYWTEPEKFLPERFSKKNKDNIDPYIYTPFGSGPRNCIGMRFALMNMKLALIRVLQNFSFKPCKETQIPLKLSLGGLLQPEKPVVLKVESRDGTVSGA
Excerpt: (§1) Supplement jciinsight-9-173646-s083.xlsx, sheet "Supplemental Table S.2." | column: HOSU-53

[2] = tested on: MOLM-13 disseminated CDX AML model; assay: MOLM-13 CDX synergy with FLT3 inhibitor gilteritinib (treatment from day 10); assay type: in vivo, NCG mice
Excerpt: Male 8- to 12-week-old NCG mice were engrafted with 1 × 10^5 cells via tail vein i.v. injection. At 10 days after engraftment (day 1 of treatment), mice (n = 10/arm) were randomized to receive p.o. qd vehicle (50/50 mix of 20% HPβCD and 0.5% methylcellulose + 0.2% Tween 80), […] treatment, day 79. Treatment was predetermined to stop on day 79, after which any remaining mice would be monitored until ERC.

[3] = target: hERG (Homo sapiens, UniProt Q12809); assay: hERG (Q-Patch); assay type: cell-based
Chain of hERG (Q12809 whole entry): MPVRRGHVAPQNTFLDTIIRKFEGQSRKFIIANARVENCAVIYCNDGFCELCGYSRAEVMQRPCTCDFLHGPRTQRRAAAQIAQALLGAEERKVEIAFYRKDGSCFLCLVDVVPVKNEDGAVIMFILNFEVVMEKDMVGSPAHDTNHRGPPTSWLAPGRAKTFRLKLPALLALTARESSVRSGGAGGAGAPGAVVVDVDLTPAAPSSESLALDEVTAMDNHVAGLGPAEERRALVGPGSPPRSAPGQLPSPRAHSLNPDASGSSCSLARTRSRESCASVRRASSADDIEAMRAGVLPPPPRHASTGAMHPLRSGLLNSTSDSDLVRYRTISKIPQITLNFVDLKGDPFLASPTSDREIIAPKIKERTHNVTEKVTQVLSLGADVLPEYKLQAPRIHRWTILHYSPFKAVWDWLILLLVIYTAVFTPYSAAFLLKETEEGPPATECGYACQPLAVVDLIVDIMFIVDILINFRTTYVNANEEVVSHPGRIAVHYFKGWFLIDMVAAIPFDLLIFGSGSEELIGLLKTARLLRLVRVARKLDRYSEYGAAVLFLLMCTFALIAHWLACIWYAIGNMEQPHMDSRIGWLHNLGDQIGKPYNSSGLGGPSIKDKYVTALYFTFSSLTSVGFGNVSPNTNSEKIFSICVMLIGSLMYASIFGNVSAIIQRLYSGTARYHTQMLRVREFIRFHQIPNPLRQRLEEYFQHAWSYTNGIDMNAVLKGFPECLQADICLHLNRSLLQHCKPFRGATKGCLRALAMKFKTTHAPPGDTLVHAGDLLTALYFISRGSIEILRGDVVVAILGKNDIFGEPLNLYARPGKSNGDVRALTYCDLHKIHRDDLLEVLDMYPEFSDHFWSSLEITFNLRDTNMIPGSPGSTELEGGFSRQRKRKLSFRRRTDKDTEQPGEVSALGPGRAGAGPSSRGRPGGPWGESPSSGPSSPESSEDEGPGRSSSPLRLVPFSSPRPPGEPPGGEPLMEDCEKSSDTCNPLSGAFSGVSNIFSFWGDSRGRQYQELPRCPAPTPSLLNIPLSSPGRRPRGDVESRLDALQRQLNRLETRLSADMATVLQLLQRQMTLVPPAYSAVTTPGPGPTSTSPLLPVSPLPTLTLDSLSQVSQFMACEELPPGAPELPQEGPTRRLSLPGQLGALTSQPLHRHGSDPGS
Excerpt: as §1

[4] = tested on: primary AML patient sample; assay: Flow cytometry CD11b/CD14 differentiation, primary AML long-term culture; assay type: cell-based, human; details: 7 days LTC
Procedure: Cells were thawed in 50% FBS RPMI and then cultured in StemSpan (StemCell Technologies) media supplemented with human FLT3L, SCF, GM-CSF, G-CSF, IL-3, IL-6, TPO, and EPO cytokines for 7 days (LTC).
After 72 hours or 7 days of treatment of DHODHi, cells were collected and washed with PBS, blocked with human Fc block (BioLegend), and stained with antibodies for 30 minutes on ice. Antibodies were washed off and cells resuspended in FACS buffer (2% FBS, 2 mM NaN3, Dulbecco’s PBS) for analysis using BD LSRFortessa or Cytek Aurora spectral flow cytometer. Live/dead exclusion was done using LIVE/DEAD Fixable Near-IR (Invitrogen). All antibodies were purchased from BioLegend except CD47, which was purchased from BD Biosciences: CD11b clone M1/70, CD38 clone HIT2, CD14 clone M5E2, CD47 clone B6H12, CD33 clone WM53, CD3 clone UCHT1, CD19 clone HIB19, and CD45 clone HI30.
Supplemental Figure S.2. […] A).
Flow cytometry analysis of viable primary AML patient samples (n=10) treated in vitro for seven days (long term culture, LTC). Live cells were measured using LIVE/DEAD™ Fixable Near-IR (NIR) gated on singlet cells. […] Images were taken using BioTek Cytation 5 Cell Imaging Multimode Reader at 20x magnification. […]

[5] = Single-dose HOSU-53 PK in mice; assay type: in vivo, male C57BL/6 mice
Procedure: In the i.v. cohort, serial blood samples were collected in tubes containing K2EDTA at 0.083, 0.25, 0.5, 1, 2, 6, 24, 48, and 72 hours postdose while in the oral gavage cohort, serial blood samples were collected at 0.25, 0.5, 1, 2, 4, 8, 24, 48, and 72 hours postdose. Blood samples were processed to plasma to analyze for HOSU-53 and L-dihydroorotic acid (DHO) concentrations using liquid chromatography-tandem mass spectrometry. page 6: Plasma samples were obtained following appropriate dosing administration and saved in the -80°C freezer till the time of analysis. Analyses by LC-MS/MS followed sample extraction by protein precipitation and separation by Ultra Performance Liquid Chromatography (UPLC, Waters Corporation, MA, USA) using a C18 column, 1.7um, 2.1x50mm, Mobile Phase A: 5:95:0.1 (v:v:v) Acetonitrile:Water:Formic Acid, Mobile Phase B: 50:50:0.1 (v:v:v) Methanol:Acetonitrile:Formic Acid. MS/MS analyses were performed on an API-6500 (Absciex MA, USA) in positive mode using an electrospray source at 550°C. The internal standard was d4-AEA monitored at 352.2 and 66.0 m/z transitions and the target analyte, HOSU-53, was monitored at 416.5 and 331.1 m/z transitions. The assay was qualified between 10-5,000 ng/ml HOSU53 to be within ±20% for QCs above the LLOQ in this range and ±25% at the LLOQ. DHO concentration quantification in mouse plasma samples. Plasma samples were obtained following appropriate dosing administration and saved in the -80°C freezer till the time of analysis. Analyses by LC-MS/MS followed sample extraction by protein precipitation and separation by Ultra Performance Liquid Chromatography (UPLC, Waters Corporation, MA, USA) using a Phenomenex Aqua C18 100x4.6mm, 3uM, […], Mobile Phase A: 100:0.1 (v:v) Water:Formic Acid, Mobile Phase B: 100:0.1 (v:v) Methanol:Formic Acid. MS/MS analyses were performed on an API-4000 (Absciex MA, USA) in negative mode using an electrospray source at 550°C. The internal standard was labeled 13C14_L-Dihydroorotic Acid monitored at 161.3 and 117.1 m/z transitions and the target analyte, L-Dihydroorotic Acid (DHO), was monitored at 157.0 and 70.0 m/z transitions. The assay was qualified between 10.0-30,000 ng/ml DHO to be within ±20% for QCs above the LLOQ in this range and ±25% at the LLOQ.

[6] = target: CYP 2C9 (Homo sapiens, UniProt P11712); assay: CYP inhibition 2C9; assay type: in vitro ADME
Chain of CYP 2C9 (P11712 whole entry): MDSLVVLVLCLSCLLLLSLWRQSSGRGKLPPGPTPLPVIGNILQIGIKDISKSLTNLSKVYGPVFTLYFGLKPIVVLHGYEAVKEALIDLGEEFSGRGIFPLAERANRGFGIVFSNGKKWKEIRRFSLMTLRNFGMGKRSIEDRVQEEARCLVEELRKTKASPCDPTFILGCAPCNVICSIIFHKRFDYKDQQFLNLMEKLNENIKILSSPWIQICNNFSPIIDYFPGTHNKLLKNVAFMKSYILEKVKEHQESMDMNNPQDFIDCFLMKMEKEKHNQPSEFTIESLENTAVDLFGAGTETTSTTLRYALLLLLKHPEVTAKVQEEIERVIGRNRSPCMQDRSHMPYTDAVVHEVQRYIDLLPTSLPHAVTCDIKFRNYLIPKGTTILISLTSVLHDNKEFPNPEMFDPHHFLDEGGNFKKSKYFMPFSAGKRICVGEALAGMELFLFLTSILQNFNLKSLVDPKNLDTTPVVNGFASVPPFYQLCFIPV
Excerpt: as §1

[7] = male, C57BL/6, plasma, po, 10 mg/kg p.o. single dose, mouse

For `CCCCOc1cccc(-c2ccc(-c3cc(C(=O)O)c4cc(F)ccc4n3)cc2)c1` [HOSU-53], the IC50 ([1]; substrate midazolam, read-out: CYP inhibition IC50 3A4 (Midazolam)) was 42.6 µM, the IC50 ([1]; substrate testosterone, read-out: CYP inhibition IC50 3A4 (testosterone)) was 22.4 µM and the median survival ([2]; 10 mg/kg HOSU-53 daily p.o.) was 48 days. The “Survival, day of study at event (per animal)” value ([2]; 4 mpk HOSU-53 poqd) was 40 days and 35 days and 44 days and 43 days and 37 days and 39 days, the “Survival, day of study at event (per animal)” value ([2]; 10 mpk HOSU-53 poqd) was 54 days and 44 days and 43 days and 59 days and 58 days and 52 days and the IC50 [3] was > 30 µM. The “CD11b+CD14+ cells” value [4] was “increased”, the HOSU-53 plasma concentration ([5]; 10 mpk PO, 0.25 h postdose, per mouse) was 130.695 µM and 175.464 µM and the HOSU-53 plasma concentration ([5]; 10 mpk PO, 0.5 h postdose, per mouse) was 155.968 µM and 199.774 µM. For the same compound, the HOSU-53 plasma concentration ([5]; 10 mpk PO, 1 h postdose, per mouse) was 185.332 µM and 227.213 µM, the HOSU-53 plasma concentration ([5]; 10 mpk PO, 2 h postdose, per mouse) was 171.131 µM and 199.774 µM and the HOSU-53 plasma concentration ([5]; 10 mpk PO, 4 h postdose, per mouse) was 168.002 µM and 190.146 µM. For the same compound, the HOSU-53 plasma concentration ([5]; 10 mpk PO, 8 h postdose, per mouse) was 182.925 µM and 197.848 µM, the HOSU-53 plasma concentration ([5]; 10 mpk PO, 24 h postdose, per mouse) was 152.839 µM and 120.105 µM and the HOSU-53 plasma concentration ([5]; 10 mpk PO, 48 h postdose, per mouse) was 81.835 µM and 67.6342 µM. For the same compound, the HOSU-53 plasma concentration ([5]; 10 mpk PO, 72 h postdose, per mouse) was 47.1755 µM and 36.5851 µM, the concentration at 0.25 h ([5]; male, C57BL/6, mouse, plasma, oral, 10 mg/kg, 10 mpk PO, 0.25 h postdose, per mouse) was 114 µM and the concentration at 0.5 h ([5]; male, C57BL/6, mouse, plasma, oral, 10 mg/kg, 10 mpk PO, 0.5 h postdose, per mouse) was 155 µM. The concentration at 1 h ([5]; male, C57BL/6, mouse, plasma, oral, 10 mg/kg, 10 mpk PO, 1 h postdose, per mouse) was 209 µM, the concentration at 2 h ([5]; male, C57BL/6, mouse, plasma, oral, 10 mg/kg, 10 mpk PO, 2 h postdose, per mouse) was 215 µM and the concentration at 4 h ([5]; male, C57BL/6, mouse, plasma, oral, 10 mg/kg, 10 mpk PO, 4 h postdose, per mouse) was 218 µM. For the same compound, the concentration at 8 h ([5]; male, C57BL/6, mouse, plasma, oral, 10 mg/kg, 10 mpk PO, 8 h postdose, per mouse) was 175 µM, the concentration at 24 h ([5]; male, C57BL/6, mouse, plasma, oral, 10 mg/kg, 10 mpk PO, 24 h postdose, per mouse) was 130 µM and the concentration at 48 h ([5]; male, C57BL/6, mouse, plasma, oral, 10 mg/kg, 10 mpk PO, 48 h postdose, per mouse) was 75.1 µM. The concentration at 72 h ([5]; male, C57BL/6, mouse, plasma, oral, 10 mg/kg, 10 mpk PO, 72 h postdose, per mouse) was 43.8 µM, the bioavailability ([5]; male, C57BL/6, plasma, oral, p.o. 10 mg/kg vs i.v. 3 mg/kg, mouse, read-out: Bioavailability (F)) was 85% and the Cmax [5, 7] was 210 µM. For the same compound, the half-life [5, 7] was 29 h, the AUC(0-t) ([5]; male, C57BL/6, plasma, po, 10 mg/kg p.o. single dose, mouse, read-out: Plasma AUC0–72h) was 7960 µM·h and the IC50 [6] was 1.16 µM.
